Data published in ChEMBL document CHEMBL1201862, “PubChem BioAssay data set” (2004).
The source made the active and inactive calls.

Assays:
[1] = target: T1, Heat shock factor protein 1 (Mus musculus, UniProt P38532); test: HSF1 potentiators in luciferase reporter cells, confirmation, cell-based, NIH3T3, luminescence, dose retest (AID 435004); format: functional;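 note: stress induced by proteasome inhibitor MG132 added 30 min after compound; luciferase reporter driven by HSF1 response element in NIH3T3 cells; actives raise luminescence as potentiators of the MG132 stress response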
T1 sequence (P38532 whole entry): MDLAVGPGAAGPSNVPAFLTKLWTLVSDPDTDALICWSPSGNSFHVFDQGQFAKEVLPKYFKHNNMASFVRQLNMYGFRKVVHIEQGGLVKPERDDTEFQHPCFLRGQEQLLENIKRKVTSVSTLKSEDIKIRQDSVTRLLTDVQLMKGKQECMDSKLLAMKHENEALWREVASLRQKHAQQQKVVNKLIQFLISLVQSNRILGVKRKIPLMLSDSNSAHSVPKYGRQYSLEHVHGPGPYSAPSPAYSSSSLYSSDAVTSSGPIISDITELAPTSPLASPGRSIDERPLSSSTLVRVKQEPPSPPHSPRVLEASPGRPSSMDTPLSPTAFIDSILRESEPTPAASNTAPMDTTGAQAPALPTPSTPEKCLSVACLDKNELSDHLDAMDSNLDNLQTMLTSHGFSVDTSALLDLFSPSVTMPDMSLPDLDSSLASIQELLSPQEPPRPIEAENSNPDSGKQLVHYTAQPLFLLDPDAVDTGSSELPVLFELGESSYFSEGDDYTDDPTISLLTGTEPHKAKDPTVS

[2] = cells; format: functional, cell-based
[3] = target: T2, Trace amine-associated receptor 1 (Homo sapiens, UniProt Q96RJ0); test: Fluorescence-based cell-based high throughput dose response assay to identify agonists of the human trace amine associated receptor 1 (TAAR1).; format: functional
T2 sequence (Q96RJ0 whole entry): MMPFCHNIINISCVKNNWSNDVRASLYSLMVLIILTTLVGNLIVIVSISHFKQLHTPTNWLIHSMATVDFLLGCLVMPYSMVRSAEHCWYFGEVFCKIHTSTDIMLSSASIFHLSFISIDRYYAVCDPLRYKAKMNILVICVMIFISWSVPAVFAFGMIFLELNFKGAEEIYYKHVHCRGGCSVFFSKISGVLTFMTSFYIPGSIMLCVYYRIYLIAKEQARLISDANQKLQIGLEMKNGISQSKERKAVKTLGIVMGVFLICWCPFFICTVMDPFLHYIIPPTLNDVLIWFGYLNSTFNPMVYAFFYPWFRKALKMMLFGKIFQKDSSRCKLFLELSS

[4] = target: T2, Trace amine-associated receptor 1; test: Counterscreen for agonists of the human trace amine associated receptor 1 (hTAAR1): Fluorescence-based cell-based high throughput dose response assay to identify hTAAR1 agonist that also desensitize TAAR1 receptor response.; format: functional
[5] = cells; format: functional, cell-based; remark: listed apart in the source
[6] = target: Large T antigen (Simian virus 40, UniProt P03070); format: functional, Betapolyomavirus macacae;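 note: Confirmatory-stage PubChem screen for compounds that inhibit SV40 T antigen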
[7] = target: T3, Long-chain-fatty-acid--AMP ligase FadD28 (Mycobacterium tuberculosis, UniProt P9WQ59); test: Fluorescence polarization aasay to screen for inhibitors that compete for the binding of FadD28 to a bisubstrate Measured in Biochemical System Using Plate Reader - 2147-01_Inhibitor_Dose_CherryPick_Activity.; format: functional, Mycobacterium tuberculosis H37Rv
T3 sequence (P9WQ59 whole entry): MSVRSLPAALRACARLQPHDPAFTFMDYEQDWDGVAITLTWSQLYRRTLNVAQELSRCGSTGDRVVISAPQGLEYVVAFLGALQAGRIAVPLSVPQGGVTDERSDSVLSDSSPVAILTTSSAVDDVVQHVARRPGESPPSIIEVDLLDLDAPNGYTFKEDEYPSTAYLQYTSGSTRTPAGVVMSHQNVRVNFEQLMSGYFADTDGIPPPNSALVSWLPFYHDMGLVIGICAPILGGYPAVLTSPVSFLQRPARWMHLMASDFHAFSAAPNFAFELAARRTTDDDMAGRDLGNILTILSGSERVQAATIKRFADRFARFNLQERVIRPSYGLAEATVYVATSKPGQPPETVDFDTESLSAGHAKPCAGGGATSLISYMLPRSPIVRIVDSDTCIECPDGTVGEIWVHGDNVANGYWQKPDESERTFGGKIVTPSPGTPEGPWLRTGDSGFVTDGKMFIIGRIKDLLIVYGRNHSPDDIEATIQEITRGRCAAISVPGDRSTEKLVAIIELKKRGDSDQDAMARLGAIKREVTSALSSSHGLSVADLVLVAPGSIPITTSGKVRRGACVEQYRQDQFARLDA

[8] = target: T4, Rac GTPase-activating protein 1 (Homo sapiens, UniProt Q9H0H5); test: MgcRacGAP GTPase-activating activity inhibitors, confirmation, biochemical, ADP Hunter fluorescence, primary and confirmatory (AID 624330); format: functional
T4 sequence (Q9H0H5 whole entry): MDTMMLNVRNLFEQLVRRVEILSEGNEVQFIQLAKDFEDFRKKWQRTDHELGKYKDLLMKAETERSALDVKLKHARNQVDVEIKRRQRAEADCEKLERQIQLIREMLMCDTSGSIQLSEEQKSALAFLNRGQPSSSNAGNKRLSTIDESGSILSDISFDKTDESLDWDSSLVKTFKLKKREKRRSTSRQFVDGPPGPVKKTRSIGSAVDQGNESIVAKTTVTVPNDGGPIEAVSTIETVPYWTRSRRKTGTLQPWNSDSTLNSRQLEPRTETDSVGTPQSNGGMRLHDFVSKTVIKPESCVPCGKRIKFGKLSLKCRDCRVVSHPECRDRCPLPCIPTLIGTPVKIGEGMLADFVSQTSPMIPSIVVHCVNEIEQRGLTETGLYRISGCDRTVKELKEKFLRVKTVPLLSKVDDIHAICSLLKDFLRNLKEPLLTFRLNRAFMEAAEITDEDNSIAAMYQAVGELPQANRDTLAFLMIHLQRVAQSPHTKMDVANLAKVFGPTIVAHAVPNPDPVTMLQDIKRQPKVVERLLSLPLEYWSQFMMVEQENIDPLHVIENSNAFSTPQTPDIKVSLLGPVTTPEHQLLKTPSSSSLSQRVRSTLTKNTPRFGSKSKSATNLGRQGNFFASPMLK

[9] = test system: Streptococcus sp. 'group A'; test: growth inhibition of control SK(-) GAS strain, dose response, counter-screen for streptokinase expression inhibitor project, luminescence, kanamycin, BacTiterGlo, confirmation (AID 1900); format: functional, organism-based
[10] = test system: BJ; test: cytotoxicity toward BJ-TERT fibroblasts, dose response, cell-based, RAS-independent, luminescence (AID 1933); format: functional; conditions: Homo sapiens
[11] = target: T5, Streptokinase A (Streptococcus pyogenes serotype M1, UniProt P10520); test: S. pyogenes streptokinase expression inhibitors, potency, dose response, plasminogen activation absorbance, OD405 (AID 1914); format: functional, Streptococcus pyogenes M1 GAS;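 note: secreted streptokinase activity via plasminogen activation per viability signal from cell pellet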
T5 sequence (P10520 whole entry): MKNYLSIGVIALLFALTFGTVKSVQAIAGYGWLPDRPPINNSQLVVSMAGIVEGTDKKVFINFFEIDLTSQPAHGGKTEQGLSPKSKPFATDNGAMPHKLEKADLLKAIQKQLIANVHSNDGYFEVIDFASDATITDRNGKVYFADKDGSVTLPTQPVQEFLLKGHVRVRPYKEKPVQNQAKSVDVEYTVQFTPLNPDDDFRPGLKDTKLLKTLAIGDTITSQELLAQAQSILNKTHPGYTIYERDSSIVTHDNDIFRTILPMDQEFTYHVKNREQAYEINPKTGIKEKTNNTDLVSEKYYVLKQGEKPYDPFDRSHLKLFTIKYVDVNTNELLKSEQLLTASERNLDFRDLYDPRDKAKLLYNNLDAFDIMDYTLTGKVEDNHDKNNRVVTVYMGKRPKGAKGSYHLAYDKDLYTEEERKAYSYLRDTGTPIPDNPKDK

[12] = test system: BJ; test: cells; format: functional, cell-based; conditions: Homo sapiens
[13] = target: Luciferin 4-monooxygenase (Photinus pyralis, UniProt P08659); test: firefly luciferase enzyme inhibitors, dose response, biochemical, luminescence (AID 1891)
[14] = Luminescence Cell-Based Dose Confirmation HTS to Identify Inhibitors of Platelet Dense Granule Release. [Related pubchem assays: 1663 (Primary HTS), 1678 (Summary of Project)]; format: functional
[15] = test system: BJ; test: cytotoxicity toward BJ-TERT-LT-ST fibroblasts, dose response, cell-based, RAS-independent, luminescence (AID 1935); format: functional; conditions: Homo sapiens;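 note: BJ fibroblasts immortalized with TERT plus LT and ST oncogenes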
[16] = cytotoxicity toward DRD oncogenic fibroblasts, dose response, cell-based, non-viral oncogenic, luminescence (AID 1934); format: functional; conditions: Homo sapiens
[17] = test system: Streptococcus; test: Group A Streptococcus viability loss, dose response, counter-screen for streptokinase expression inhibitor project, luminescence, BacTiterGlo (AID 1915); format: functional, organism-based;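 note: potency for reduction of bacterial viability or growth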
[18] = cells; format: functional, cell-based; remark: listed apart in the source
[19] = target: T6, Nuclear receptor subfamily 0 group B member 1 (Homo sapiens, UniProt P51843); format: functional, cell-based;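 note: HEK293T cells transfected with SF-1 and DAX-1 plus StAR promoter luciferase reporter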
T6 sequence (P51843 whole entry): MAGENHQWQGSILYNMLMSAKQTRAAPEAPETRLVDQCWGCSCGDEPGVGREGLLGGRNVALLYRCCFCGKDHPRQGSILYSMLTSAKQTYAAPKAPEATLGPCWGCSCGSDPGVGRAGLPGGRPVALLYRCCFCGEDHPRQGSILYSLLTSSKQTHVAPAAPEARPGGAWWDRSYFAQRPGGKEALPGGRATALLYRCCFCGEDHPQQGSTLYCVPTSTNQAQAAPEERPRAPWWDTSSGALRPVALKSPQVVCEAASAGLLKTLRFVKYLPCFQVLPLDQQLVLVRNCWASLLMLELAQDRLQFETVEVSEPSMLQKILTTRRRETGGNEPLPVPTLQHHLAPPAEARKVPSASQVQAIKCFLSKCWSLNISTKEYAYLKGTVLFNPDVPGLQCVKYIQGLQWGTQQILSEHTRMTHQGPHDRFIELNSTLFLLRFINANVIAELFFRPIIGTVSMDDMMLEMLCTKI

[20] = target: Mu-type opioid receptor (Homo sapiens, UniProt P35372); format: functional, cell-based;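 note: U2OS cells with beta-arrestin recruitment to OPRM1 by beta-gal complementation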
[21] = target: 5-hydroxytryptamine receptor 2A (Mus musculus, UniProt P35363); format: functional, cell-based;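 note: CHO-K1 cells with tagged receptor and beta-arrestin; agonist potency measured as compound-induced activation of the receptor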
[22] = inhibitors of HIV Env-driven cell fusion, dose response, cherry-pick (AID 652057); format: functional, cell-based
[23] = CEM21 lymphoblast cell cytotoxicity, dose response, cytotoxicity control for viral fusion inhibitor project, CellTiter-Glo luminescence, cherry-picked (AID 652042); format: functional, cell-based;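 note: potency for signal decrease meaning cytotoxicity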
[24] = ZM109 Env clade C HIV-1 fusion inhibitors, dose response, HeLa effector, CEM target cells, luciferase, cherry-pick (AID 652058); format: functional, cell-based
[25] = off-target signal loss in HeLa-CEM21 co-culture – HeLa F-luc CTL cells, cherry-picked, counter-screen for HIV-1 Env fusion inhibitor project, dose response (AID 652040); format: functional, cell-based;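 note: potency for signal decrease marking cytotoxic or nonspecific inhibition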
[26] = inhibitors of clade B AD8 Env fusion, dose response, cell-based, cherry-pick (AID 652062); format: functional;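 note: luciferase signal from cell-cell fusion driven by HIV-1 clade B AD8 Env; potency is for inhibitors of fusion seen as a drop in luminescence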
[27] = target: FAD-linked sulfhydryl oxidase ALR (Homo sapiens, UniProt P55789); test: inhibitors of human ALR sulfhydryl oxidase, dose response, biochemical, H2O2 detection, luminescence, cherry-pick (AID 493248)
FAD-linked sulfhydryl oxidase ALR, sequence (P55789 whole entry): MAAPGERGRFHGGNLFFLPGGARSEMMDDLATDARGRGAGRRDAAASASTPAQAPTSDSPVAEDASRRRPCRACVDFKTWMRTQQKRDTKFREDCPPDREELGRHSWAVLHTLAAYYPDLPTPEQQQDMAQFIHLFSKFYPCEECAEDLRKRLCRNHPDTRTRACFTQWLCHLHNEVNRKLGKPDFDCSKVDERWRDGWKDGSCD

Mu-type opioid receptor, sequence (P35372 whole entry): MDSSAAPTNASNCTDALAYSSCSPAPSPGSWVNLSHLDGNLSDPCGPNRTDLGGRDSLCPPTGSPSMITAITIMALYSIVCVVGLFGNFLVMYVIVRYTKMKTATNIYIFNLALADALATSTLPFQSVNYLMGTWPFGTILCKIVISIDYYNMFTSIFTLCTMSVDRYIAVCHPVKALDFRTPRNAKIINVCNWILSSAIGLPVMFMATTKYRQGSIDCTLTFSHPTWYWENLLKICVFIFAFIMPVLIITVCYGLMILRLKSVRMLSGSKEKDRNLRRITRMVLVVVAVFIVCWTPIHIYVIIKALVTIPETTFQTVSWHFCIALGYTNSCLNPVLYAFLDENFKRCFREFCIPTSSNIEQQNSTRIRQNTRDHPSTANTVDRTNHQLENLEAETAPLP
5-hydroxytryptamine receptor 2A, sequence (P35363 whole entry, the tested form may be a part): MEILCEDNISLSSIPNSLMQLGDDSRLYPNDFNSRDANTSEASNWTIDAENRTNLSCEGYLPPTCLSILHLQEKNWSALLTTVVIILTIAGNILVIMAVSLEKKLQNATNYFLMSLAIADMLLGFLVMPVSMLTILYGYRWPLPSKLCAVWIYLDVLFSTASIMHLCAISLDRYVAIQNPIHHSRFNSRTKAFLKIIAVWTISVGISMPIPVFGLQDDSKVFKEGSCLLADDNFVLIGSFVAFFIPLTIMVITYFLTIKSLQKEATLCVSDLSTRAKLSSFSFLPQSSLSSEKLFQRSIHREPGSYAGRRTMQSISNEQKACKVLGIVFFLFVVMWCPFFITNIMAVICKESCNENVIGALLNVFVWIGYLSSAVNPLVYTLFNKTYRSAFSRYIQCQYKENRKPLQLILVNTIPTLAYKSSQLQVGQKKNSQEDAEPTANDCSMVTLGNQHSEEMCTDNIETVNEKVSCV
Large T antigen, sequence (P03070 whole entry): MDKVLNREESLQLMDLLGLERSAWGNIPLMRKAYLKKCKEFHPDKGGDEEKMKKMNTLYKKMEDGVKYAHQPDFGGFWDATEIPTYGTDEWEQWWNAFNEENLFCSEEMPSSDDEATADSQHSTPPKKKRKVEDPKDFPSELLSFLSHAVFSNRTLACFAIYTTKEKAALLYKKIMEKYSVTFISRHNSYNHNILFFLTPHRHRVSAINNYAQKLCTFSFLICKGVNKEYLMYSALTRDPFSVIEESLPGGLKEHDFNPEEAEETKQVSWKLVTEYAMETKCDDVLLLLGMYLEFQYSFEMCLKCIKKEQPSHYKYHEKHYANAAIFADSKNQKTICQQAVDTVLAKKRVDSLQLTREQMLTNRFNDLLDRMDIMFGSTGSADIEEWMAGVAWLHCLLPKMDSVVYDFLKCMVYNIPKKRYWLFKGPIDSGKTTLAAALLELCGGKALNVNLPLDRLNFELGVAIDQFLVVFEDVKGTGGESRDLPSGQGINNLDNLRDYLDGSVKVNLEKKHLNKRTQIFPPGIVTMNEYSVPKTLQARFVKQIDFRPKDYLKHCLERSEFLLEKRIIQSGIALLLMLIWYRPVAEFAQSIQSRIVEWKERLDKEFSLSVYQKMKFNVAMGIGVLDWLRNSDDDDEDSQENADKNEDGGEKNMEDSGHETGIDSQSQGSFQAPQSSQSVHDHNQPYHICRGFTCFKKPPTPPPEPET
Luciferin 4-monooxygenase, sequence (P08659 whole entry): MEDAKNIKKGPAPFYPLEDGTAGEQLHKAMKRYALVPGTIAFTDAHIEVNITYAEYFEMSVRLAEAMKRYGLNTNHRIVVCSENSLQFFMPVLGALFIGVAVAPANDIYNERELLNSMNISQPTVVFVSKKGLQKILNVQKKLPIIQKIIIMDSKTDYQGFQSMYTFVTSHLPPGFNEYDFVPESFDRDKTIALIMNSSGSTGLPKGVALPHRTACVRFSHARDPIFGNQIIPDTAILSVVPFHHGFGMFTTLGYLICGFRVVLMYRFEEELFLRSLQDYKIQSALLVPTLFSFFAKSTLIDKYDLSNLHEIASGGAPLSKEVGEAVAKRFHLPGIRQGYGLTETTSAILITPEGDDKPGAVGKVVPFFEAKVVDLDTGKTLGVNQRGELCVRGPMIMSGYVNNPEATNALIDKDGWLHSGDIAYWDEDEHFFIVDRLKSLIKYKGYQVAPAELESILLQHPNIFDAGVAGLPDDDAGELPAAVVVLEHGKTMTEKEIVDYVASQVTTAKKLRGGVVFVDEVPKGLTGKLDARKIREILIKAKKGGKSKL

O=C(CCN1CCc2ccccc2C(c2ccccc2)C1)c1ccc2c(c1)OCCO2 (stereo not given)
EC50 [1]: > 260 µM (inactive) | IC50 [2]: > 29.9 µM (inactive) | EC50 [3]: 4.51 µM (active) | IC50 [4]: 9.28 µM (active) | EC50 [5]: > 29.9 µM (inactive)

OC1CCN(C(S)=Nc2ccc(Nc3ccccc3)cc2)CC1
IC50 [6]: 6.93 µM (active) | AC50 [7]: > 100 µM (inactive) | IC50 [8]: 38.7 µM (active)

O=Nc1c2cc(-c3ccccc3)n[nH]c-2c2ccccc12
EC50 [9]: 5.57 µM (active) | EC50 [10]: 6.53 µM (active) | EC50 [11]: > 150 µM (not active) | EC50 [12]: 6.29 µM (active) | EC50 [13]: 0.222 µM (active) | EC50 [14]: 1.47 µM (active) | EC50 [15]: > 150 µM (not active) | EC50 [16]: 4.14 µM (active) | EC50 [17]: 14.7 µM (active) | IC50 [18]: > 67.5 µM (inactive) | IC50 [19]: > 0.833 µM (active)

COc1cccc(CN2CCN(c3ncccn3)CC2)c1OC
EC50 [20]: 92.5 µM (inactive) | EC50 [21]: 21.6 µM (inactive)

OCC1(Cc2cccc(C(F)(F)F)c2)CCN(Cc2cc3ccccc3o2)CC1
EC50 [1]: > 260 µM (inactive) | EC50 [20]: 92.5 µM (inactive) | EC50 [21]: 3.6 µM (active)

O=C(CSc1cccc[n+]1[O-])c1ccc(-c2ccccc2)cc1
IC50 [18]: > 67.5 µM (inactive) | IC50 [19]: > 67.5 µM (inactive)

C(=C\c1ccccc1)/CN1CCN(C(c2nnnn2-c2ccc3c(c2)OCCO3)C2CC2)CC1 (stereo not given)
EC50 [20]: 92.3 µM (inactive) | EC50 [21]: 76 µM (inactive)

Cc1cnc(C)c(Nc2nc(C(N)Cc3ccc(C(F)(F)F)cc3)cs2)n1 (stereo not given)
AC50 [22]: 5.44 µM (active) | AC50 [23]: 18.1 µM (active) | AC50 [24]: 10.5 µM (active) | AC50 [25]: 5.07 µM (active) | AC50 [26]: 7.29 µM (active)

O=C(O)c1cccc2c1-c1ccccc1/C2=N\Nc1ccccc1
AC50 [27]: 0.264 µM (active) | AC50 [7]: > 100 µM (inactive)
